One data set deals with T1, rat mGlu2 receptor (Rattus norvegicus, UniProt P31421).
T1 construct: expressed in transfected cells; vector pcDNA I-amp (pcD1mGR2)
Put plainly: [3H]-LY354740 binding on mGlu2 transfected CHO cell membranes. From the text: [^3H]-LY354740 Binding on mGlu2 Transfected CHO Cell Membranes
Transfection and Cell Culture
cDNA encoding the rat mGlu2 receptor protein in pBluescript II was obtained from Prof. S. Nakanishi (Kyoto, Japan), and subcloned into the eukaryotic expression vector pcDNA I-amp from Invitrogen (N V Leek, The Netherlands). This vector construct (pcD1mGR2) was co-transfected with a psvNeo plasmid encoding the gene for neomycin resistance, into CHO cells by a modified calcium phosphate method described by Chen & Okayama (1988). The cells were maintained in Dulbecco's Modified Eagle medium with reduced L-glutamine (2 mM final concentration) and 10% dialysed foetal calf serum from Gibco BRL (Basel, Switzerland). Selection was made in the presence of […] (1000 ug/ml final). Clones were identified by reverse transcription of 5 μg total RNA, followed by PCR using mGlu2 receptor specific primers 5′-[…]-3′ and 5′-[…]-3′ in 60 mM Tris HCl (pH 10), 15 mM (NH4)2SO4, 2 mM MgCl2, 25 units/ml Taq Polymerase with 30 cycles annealing at 60° C. for 1 min., extension at 72° C. for 30s, and 1 min. 95° C. denaturation.
Cells, cultured as above, were harvested and washed three times with cold PBS and frozen at −80° C. The pellet was resuspended in cold 20 mM HEPES-NaOH buffer containing 10 mM EDTA (pH 7.4), and homogenised with a polytron (Kinematica, AG, Littau, Switzerland) for 10s at 10,000 rpm. After centrifugation for 30 min. at 4° C., the pellet was washed once with the same buffer, and once with cold 20 mM HEPES-NaOH buffer containing 0.1 mM EDTA, (pH 7.4). Protein content was measured using the Pierce method (Socochim, Lausanne, Switzerland) using bovine serum albumin as standard.
After thawing, the membranes were resuspended in cold 50 mM Tris-HCl buffer containing 2 mM MgCl2 and 2 mM CaCl2, (pH 7) (binding buffer). The final concentration of the membranes in the assays was 25 μg protein/ml. Inhibition experiments were performed with membranes incubated with 10 nM [^3H]-LY354740 at room temperature, for 1 hour, in presence of various concentrations of the compound to be tested. Following the incubations, membranes were filtered onto Whatmann GF/C glass fiber filters and washed 5 times with cold binding buffer. Non specific binding was measured in the presence of 10 μM DCG IV (TOCRIS No. 0975). After transfer of the filters into plastic vials containing 10 ml of Ultima-gold scintillation fluid (Packard, Zürich, Switzerland), the radioactivity was measured by liquid scintillation in a Tri-Carb 2500 TR counter (Packard, Zürich, Switzerland).
The inhibition curves were fitted with a four parameter logistic equation giving IC50 values, and Hill coefficients.

The text below walks through data of US6509328B1, “Glutamate receptor antagonists” (Hoffmann-La Roche Inc., priority 1999, dated 2003).

The Ki is the dissociation constant of the complex between target and ligand, obtained from inhibition or displacement. As a reminder, the melting point is the temperature of the solid-liquid transition.

T1 sequence (P31421 19-872): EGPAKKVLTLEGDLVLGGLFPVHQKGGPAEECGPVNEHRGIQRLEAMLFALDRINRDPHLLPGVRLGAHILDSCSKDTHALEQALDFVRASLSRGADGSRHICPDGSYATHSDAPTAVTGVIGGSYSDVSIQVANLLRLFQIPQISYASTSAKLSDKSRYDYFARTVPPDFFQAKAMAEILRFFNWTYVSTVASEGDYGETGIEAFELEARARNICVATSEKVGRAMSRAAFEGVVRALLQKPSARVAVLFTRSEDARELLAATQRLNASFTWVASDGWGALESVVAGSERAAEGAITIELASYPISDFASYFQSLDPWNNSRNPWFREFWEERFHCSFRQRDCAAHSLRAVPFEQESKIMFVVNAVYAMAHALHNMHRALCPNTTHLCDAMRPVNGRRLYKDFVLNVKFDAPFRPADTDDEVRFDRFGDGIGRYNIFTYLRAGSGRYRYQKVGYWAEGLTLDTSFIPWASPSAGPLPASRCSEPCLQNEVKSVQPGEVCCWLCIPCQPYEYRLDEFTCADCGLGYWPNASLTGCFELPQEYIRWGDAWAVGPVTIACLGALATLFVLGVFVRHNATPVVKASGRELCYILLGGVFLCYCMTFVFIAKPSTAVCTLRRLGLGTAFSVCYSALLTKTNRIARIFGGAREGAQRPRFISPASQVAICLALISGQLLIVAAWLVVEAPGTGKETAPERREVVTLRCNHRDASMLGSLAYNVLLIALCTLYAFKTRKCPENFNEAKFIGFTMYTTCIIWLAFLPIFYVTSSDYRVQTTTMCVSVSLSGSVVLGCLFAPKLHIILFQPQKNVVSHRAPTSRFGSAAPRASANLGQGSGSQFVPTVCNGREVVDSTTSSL

As to `N#Cc1cccc(C2=Nc3ccc(I)cc3NC(=O)C2)c1` [Example 1, 3-(7-Iodo-4-oxo-4,5-dihydro-3H-benzo[b][1,4]diazepin-2-yl)-benzonitrile], the melting point is 198 to 200 °C (dec.). Moreover, the Ki on rat mGlu2 receptor was found to be 0.017 µM. Take `O=C1CC(c2cccc(Cl)c2)=Nc2ccc(C#Cc3ccccc3)cc2N1` [Example 5, 4-(3-Chloro-phenyl)-8-phenylethynyl-1,3-dihydro-benzo[b][1,4]diazepin-2-one]: the affinity on rat mGlu2 receptor, expressed as Ki, was 0.04 µM. `O=C1CC(c2cccc(-n3ccnc3)c2)=Nc2ccc(C#Cc3ccccc3)cc2N1` [Example 52] came in with a melting point of 193 to 196 °C. This molecule showed an inhibition constant (Ki) at rat mGlu2 receptor of 0.006 µM. The molecule `N#Cc1cccc(C2=Nc3ccc(-c4ccc(F)cc4)cc3NC(=O)C2)c1` [Example 57, 3-[7-(4-Fluoro-phenyl)-4-oxo-4,5-dihydro-3H-benzo[b][1,4]diazepin-2-yl]-benzonitrile] gave a Ki at rat mGlu2 receptor of 0.055 µM. In other words, the double-digit nanomolar range. Regarding `O=C1CC(c2cccc(-n3ccnc3)c2)=Nc2ccc(C#Cc3ccc(F)cc3)cc2N1` [Example 58, 8-(4-Fluoro-phenylethynyl)-4-(3-imidazol-1-yl-phenyl)-1,3-dihydro-benzo [b][1,4]diazepin-2-one], the melting point was 216 to 218 °C. The molecule further displayed a Ki at rat mGlu2 receptor of 0.004 µM. `O=C1CC(c2cccc(-n3cncn3)c2)=Nc2ccc(C#Cc3ccc(F)cc3)cc2N1` [Example 62, 8-(4-Fluoro-phenylethynyl)-4-(3-[1,2,4]triazol-1-yl-phenyl)-1,3-dihydro-benzo[b][1,4]diazepin-2-one] had a melting point of 217 to 218 °C. At rat mGlu2 receptor, this molecule displayed a Ki of 0.049 µM. On to `O=C1CC(c2ccnc(-n3ccnc3)c2)=Nc2ccc(C#Cc3ccc(F)cc3)cc2N1` [Example 68, 8-(4-Fluoro-phenylethynyl)-4-(2-imidazol-1-yl-pyridin-4-yl)-1,3-dihydro-benzo[b][1,4]diazepin-2-one], for which the melting point was 206 °C (dec.). This molecule returned a Ki at rat mGlu2 receptor of 0.004 µM. The matching figures for `Cc1cn(-c2cccc(C3=Nc4ccc(-c5ccc(F)cc5)cc4NC(=O)C3)c2)cn1` [Example 76, 8-(4-Fluoro-phenyl)-4-[3-(4-methyl-imidazol-1-yl)-phenyl]-1,3-dihydro-benzo [b][1,4]diazepin-2-one]: 215 °C and 0.016 µM. The matching figures for `Cc1cc(F)ccc1-c1ccc2c(c1)NC(=O)CC(c1cccc(-n3ccnc3)c1)=N2` [Example 79, 8-(4-Fluoro-2-methyl-phenyl)-4-(3-imidazol-1-yl-phenyl)-1,3-dihydro-benzo[b][1,4]diazepin-2-one]: 170 to 172 °C and 0.05 µM. In the case of `O=C1CC(c2cccc(-n3ccnc3)c2)=Nc2ccc(-c3ccc(F)cc3O)cc2N1` [Example 80, 8-(4-Fluoro-2-hydroxy-phenyl)-4-(3-imidazol-1-yl-phenyl)-1,3-dihydro-benzo[b][1,4]diazepin-2-one], the melting point came to 220 °C. The molecule also registered a Ki on rat mGlu2 receptor of 0.17 µM.

With `N#Cc1ccsc1C1=CC(=O)Nc2cc(-c3ccc(F)cc3)ccc2N1` [Example 83, 2-[7-(4-Fluoro-phenyl)-4-oxo-4,5-dihydro-1H-benzo [b][1,4]diazepin-2-yl]-thiophene-3-carbonitrile], the melting point was in the range of 239 to 240 °C. On rat mGlu2 receptor, this molecule displayed a Ki of 0.25 µM. `O=C1CC(c2cccc(-n3cnnn3)c2)=Nc2ccc(C#Cc3ccc(F)cc3)cc2N1` [Example 87, 8-(4-Fluoro-phenylethynyl)-4-(3-tetrazol-1-yl-phenyl)-1,3-dihydro-benzo [b][1,4]diazepin-2-one] gave a Ki at rat mGlu2 receptor of 0.036 µM. That is a double-digit nanomolar value.

Molecule `N#Cc1cc(C2=Nc3ccc(C#Cc4ccccc4)cc3NC(=O)C2)ccn1` [Example 98, 4-(4-Oxo-7-phenylethynyl-4,5-dihydro-3H-benzo [b][1,4]diazepin-2-yl)-pyridine-2-carbonitrile] showed a Ki on rat mGlu2 receptor of 0.039 µM. The molecule `N#Cc1cc(C2=Nc3ccc(-c4ccc(F)cc4F)cc3NC(=O)C2)ccn1` [Example 104, 4-[7-(2,4-Difluoro-phenyl)-4-oxo-4,5-dihydro-3H-benzo [b][1,4]diazepin-2-yl]-pyridine-2-carbonitrile] returned a melting point of 250 to 253 °C. At rat mGlu2 receptor, this molecule returned a Ki of 0.026 µM.

The molecule `O=C1CC(c2cccc(-n3ccnn3)c2)=Nc2ccc(-c3ccccc3F)cc2N1` [Example 110, 8-(2-Fluoro-phenyl)-4-(3-[1,2,3]triazol-1-yl-phenyl)-1,3-dihydro-benzo [b][1,4]diazepin-2-one] displayed a Ki at rat mGlu2 receptor of 0.008 µM. On the same count and under the same terms, the result for `O=C1CC(c2cccc(-n3ccnn3)c2)=Nc2ccc(-c3ccc(F)cc3F)cc2N1` [Example 123, 8-(2,4-Difluoro-phenyl)-4-(3-[1,2,3]triazol-1-yl-phenyl)-1,3-dihydro-benzo [b][1,4]diazepin-2-one] reads 0.01 µM; that for `O=C1CC(c2cccc(-n3ccnn3)c2)=Nc2ccc(-c3cccc(F)c3F)cc2N1` [Example 129, 8-(2,3-Difluoro-phenyl)-4-(3-[1,2,3]triazol-1-yl-phenyl)-1,3-dihydro-benzo[b][1,4]diazepin-2-one], 0.013 µM. `O=C1CC(c2cccc(-c3nc(CO)cs3)c2)=Nc2ccc(-c3ccc(F)cc3)cc2N1` [Example 156, 8-(4-Fluoro-phenyl)-4-[3-(4-hydroxymethyl-thiazol-2-yl)-phenyl]-1,3-dihydro-benzo[b][1,4]diazepin-2-one]: the melting point was 235 to 239 °C (dec.).

Turning to `O=C1CC(c2cccc(-c3nc(CO)cs3)c2)=Nc2ccc(-c3ccccc3F)cc2N1` [Example 157, 8-(2-Fluoro-phenyl)-4-[3-(4-hydroxymethyl-thiazol-2-yl)-phenyl]-1,3-dihydro-benzo[b][1,4]diazepin-2-one], the Ki at rat mGlu2 receptor amounted to 0.016 µM.

For `O=C1CC(c2ccnc(-c3nc(CO)cs3)c2)=Nc2ccc(-c3ccc(F)cc3)cc2N1` [Example 158, 8-(4-Fluoro-phenyl)-4-[2-(4-hydroxymethyl-thiazol-2-yl)-pyridin-4-yl]-1,3-dihydro-benzo[b][1,4]diazepin-2-one], the melting point was in the range of 225 to 229 °C.

In the case of `O=C1CC(c2cccc(-c3nc(C(=O)O)cs3)c2)=Nc2ccc(-c3ccccc3F)cc2N1` [Example 160, 2-{3-[7-(2-Fluoro-phenyl)-4-oxo-4,5-dihydro-3H-benzo [b][1,4]diazepin-2-yl]-phenyl}-thiazole-4-carboxylic Acid], at rat mGlu2 receptor, the affinity, expressed as Ki, was 0.016 µM.

As to `O=C1CC(c2cccc(-c3nc(C(=O)NCCO)cs3)c2)=Nc2ccc(-c3ccc(F)cc3)cc2N1` [Example 161, 2-{3-[7-(4-Fluoro-phenyl)-4-oxo-4,5-dihydro-3H-benzo [b][1,4]diazepin-2-yl]-phenyl}-thiazole-4-carboxylic Acid (2-hydroxy-ethyl)-amide], the melting point was 238 to 245 °C (dec.).

Consider `Cc1nc(-c2cccc(C3=Nc4ccc(-c5ccc(F)cc5)cc4NC(=O)C3)c2)sc1C(=O)NCCO` [Example 162, 2-{3-[7-(4-Fluoro-phenyl)-4-oxo-4,5-dihydro-3H-benzo [b][1,4]diazepin-2-yl]-phenyl}-4-methyl-thiazole-5-carboxylic Acid (2-hydroxy-ethyl)-amide], for which the melting point was 248 to 251 °C (dec.).

With `Cc1nnc(-c2cccc(C3=Nc4ccc(-c5ccc(F)cc5)cc4NC(=O)C3)c2)o1` [Example 165, 8-(4-Fluoro-phenyl)-4-[3-(5-methyl-[1,3,4]oxadiazol-2-yl)-phenyl]-1,3-dihydro-benzo[b][1,4]diazepin-2-one], the melting point is 254 to 256 °C (dec.). Turning to `O=C1CC(c2cccc(-c3noc(CCCO)n3)c2)=Nc2ccc(-c3ccc(F)cc3)cc2N1` [Example 168, 8-(4-Fluoro-phenyl)-4-{3-[5-(3-hydroxy-propyl)-[1,2,4]oxadiazol-3-yl]-phenyl}-1,3-dihydro-benzo[b][1,4]diazepin-2-one], the melting point was 220 to 222 °C. In turn, `Cc1noc(-c2cccc(C3=Nc4ccc(-c5ccc(F)cc5)cc4NC(=O)C3)c2)n1` [Example 169, 8-(4-Fluoro-phenyl)-4-[3-(3-methyl-[1,2,4]oxadiazol-5-yl)-phenyl]-1,3-dihydro-benzo[b][1,4]diazepin-2-one] gave a melting point of 266 to 268 °C.
